Ends that are not written are not given here.
Legend:
Bacillus subtilis = format: cell-based

Sequence: RFARKGALRQKNV [Protein kinase C]
- antibacterial effect in time kill assay (CFU) (Bacillus subtilis): no effect

Sequence: TRKKLFHIFHATIRSR [PAD-1.17, TRKKLFHIFHATIRSR]
- detergent-like (lytic) action (sheep red blood cells): did not appear to act as a detergent

— patent US8227423B2 (priority 2004, dated 2012)
